Assay results: patent publication US8628771B2, “CA IX-specific inhibitors” (Institute of Virology Slovak Academy of Sciences, priority 2002, dated 2014)
Read-outs that look alike come from different tables or passages of the source.

Legend:
[1] = target: hCA IX (Homo sapiens, UniProt Q16790); test: CA CO2 hydrase activity assay, tumor-associated isozyme hCA IX
Description: An SX.18MV-R Applied Photophysics stopped-flow instrument has been used for assaying the CA CO2 hydration activity assays [44]. […] Inhibitor and enzyme solutions were preincubated together for 10 min at room temperature prior to assay, in order to allow for the formation of the E-I complex.

[2] = target: T1, bCA IV (Bos taurus, UniProt Q95323); test: CA esterase activity assay, isozyme bCA IV; format: biochemical, bovine; conditions: Table 2; from bovine lung microsomes; read-out: KI bCA IV
T1 construct: CA IV was isolated from bovine lung microsomes as described by Maren et al; from tissue; host or cells: bovine lung microsomes
T1 sequence (Q95323 19-284): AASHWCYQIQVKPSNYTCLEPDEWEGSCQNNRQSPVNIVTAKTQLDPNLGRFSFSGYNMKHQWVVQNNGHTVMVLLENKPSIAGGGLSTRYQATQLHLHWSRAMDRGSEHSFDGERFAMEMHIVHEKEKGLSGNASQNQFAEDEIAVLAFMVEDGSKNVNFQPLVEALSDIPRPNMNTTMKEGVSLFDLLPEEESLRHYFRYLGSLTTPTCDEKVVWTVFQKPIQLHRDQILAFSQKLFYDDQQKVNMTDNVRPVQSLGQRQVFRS

[3] = target: T2, hCA II (Homo sapiens, UniProt P00918); test: CA esterase activity assay, isozyme hCA II; format: biochemical; conditions: read-out: KI hCA II
T2 construct: made in house; host or cells: Escherichia coli BL21 (DE3)
Description: (§1) Human CA I and CA II cDNAs were expressed in Escherichia coli strain BL21 (DE3) from the plasmids pACA/hCA I and pACA/hCA II described by Lindskog's group [54].
(§2) Non-enzymatic hydrolysis rates were always subtracted from the observed rates. […] Inhibitor and enzyme solutions were preincubated together for 10 min at room temperature prior to assay, in order to allow for the formation of the E-I complex. The inhibition constant KI was determined as described in references [44, 76].

[4] = target: T3, hCA I (Homo sapiens, UniProt P00915); test: CA esterase activity assay, isozyme hCA I; format: biochemical; conditions: Table 2; human (cloned) isozymes; read-out: KI hCA I
T3 construct: made in house; host or cells: Escherichia coli BL21 (DE3)
T3 sequence (P00915 whole entry): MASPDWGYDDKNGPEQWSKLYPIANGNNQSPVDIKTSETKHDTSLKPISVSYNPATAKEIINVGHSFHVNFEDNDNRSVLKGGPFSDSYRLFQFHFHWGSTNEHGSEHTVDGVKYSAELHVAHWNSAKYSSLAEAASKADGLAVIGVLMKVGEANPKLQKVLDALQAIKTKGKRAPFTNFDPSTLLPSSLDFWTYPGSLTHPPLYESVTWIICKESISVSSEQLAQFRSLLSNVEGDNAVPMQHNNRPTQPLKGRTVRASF
Description: as §1, §2

[5] = read-out: KI hCA IX, Table 2, catalytic domain of the human, cloned isozyme
[6] = Table 2, human (cloned) isozymes

Structure (SMILES) | Ki [1] | Ki [1, 5] | Ki [2] | Ki [3, 6] | Ki [4] | Ki ([1]; KI against CA IX, text discussion of Tables 1-3) | Ki [3]
Cc1cc(C)[n+](-c2ccc(S(N)(=O)=O)cc2)c(C)c1 [Compound 27] | 160 to 450 nM | 165 nM | 290 nM | 150 nM | 10000 nM |  | 
Cc1cc(-c2ccccc2)cc(C)[n+]1-c1ccc(S(N)(=O)=O)cc1 [Compound 28] | 6 to 54 nM | 48 nM | 211 nM | 60 nM | 7000 nM |  | 
CCc1cc(-c2ccccc2)cc(CC)[n+]1-c1ccc(S(N)(=O)=O)cc1 [Compound 29] |  | 43 nM | 182 nM | 60 nM | 6000 nM | 6 to 54 nM | 
CCCc1cc(-c2ccccc2)cc(CCC)[n+]1-c1ccc(S(N)(=O)=O)cc1 [Compound 30] |  | 178 nM | 194 nM | 120 nM | 10000 nM |  | 
Cc1cc(-c2ccccc2)cc(-c2ccccc2)[n+]1-c1ccc(S(N)(=O)=O)cc1 [Compound 32] |  | 280 nM | 852 nM | 210 nM | 40000 nM |  | 
CCc1cc(-c2ccccc2)cc(-c2ccccc2)[n+]1-c1ccc(S(N)(=O)=O)cc1 [Compound 33] |  | 450 nM | 1300 nM | 400 nM | 43000 nM |  | 
CCCc1cc(-c2ccccc2)cc(-c2ccccc2)[n+]1-c1ccc(S(N)(=O)=O)cc1 [Compound 34] |  |  | 1480 nM | 580 nM | 140000 nM |  | 
CC(C)c1cc(-c2ccccc2)cc(-c2ccccc2)[n+]1-c1ccc(S(N)(=O)=O)cc1 [Compound 35] |  |  | 2100 nM | 440 nM | 125000 nM |  | 
CCCCc1cc(-c2ccccc2)cc(-c2ccccc2)[n+]1-c1ccc(S(N)(=O)=O)cc1 [Compound 36] |  |  | 2160 nM | 620 nM | 305000 nM |  | 
NS(=O)(=O)c1ccc(-[n+]2c(-c3ccccc3)cc(-c3ccccc3)cc2-c2ccccc2)cc1 [Compound 37] |  |  | 2500 nM |  | 290000 nM |  | 510 nM
Cc1cc(C)[n+](-c2ccc(S(N)(=O)=O)cc2)c(C)c1C [Compound 38] | 64 to 135 nM | 72 nM | 61 nM | 40 nM | 5000 nM |  | 
Cc1cc(C)[n+](Cc2ccc(S(N)(=O)=O)cc2)c(C(C)C)c1 [Compound 40] |  | 42 nM | 80 nM | 50 nM | 6000 nM |  | 
Cc1cc(C(C)C)[n+](Cc2ccc(S(N)(=O)=O)cc2)c(C(C)C)c1 [Compound 41] |  | 54 nM | 144 nM | 80 nM | 11000 nM |  | 
CCc1cc(-c2ccccc2)cc(CC)[n+]1Cc1ccc(S(N)(=O)=O)cc1 [Compound 43] |  | 29 nM | 52 nM | 21 nM | 2000 nM |  | 
CCCc1cc(-c2ccccc2)cc(CCC)[n+]1Cc1ccc(S(N)(=O)=O)cc1 [Compound 44] | 160 to 450 nM | 230 nM | 163 nM | 90 nM | 24000 nM |  | 
Cc1cc(-c2ccccc2)cc(-c2ccccc2)[n+]1Cc1ccc(S(N)(=O)=O)cc1 [Compound 46] |  | 64 nM | 161 nM |  | 32000 nM |  | 121 nM
CCc1cc(-c2ccccc2)cc(-c2ccccc2)[n+]1Cc1ccc(S(N)(=O)=O)cc1.[O-][Cl+3]([O-])([O-])[O-] [Compound 47] |  | 79 nM | 983 nM | 314 nM | 42000 nM |  | 
CCCc1cc(-c2ccccc2)cc(-c2ccccc2)[n+]1Cc1ccc(S(N)(=O)=O)cc1 [Compound 48] |  | 85 nM | 1260 nM | 390 nM | 130000 nM |  | 
